Data set [1] concerns the target Corticotropin releasing hormone receptor 2 (Sus scrofa, UniProt B8Q4Z9). In words: Displacement of [125I]sauvagine from CRF2 receptor in pig choroid plexus by rapid filtration technique. The class given is tissue-based.
Data set [2] is described as follows: AUC in Sprague-Dawley rat at 10 mg/kg, po dosed as aqueous solution of oleoyl macrogolglyceride/DMAC/polysorbate 80, 85:10:5 within 0.25 to 24 hrs. The data set is classed as ADME, organism-based. Also noted: time 0.25-24 hr, dose 10 mg/kg, route oral. To be noted: plasma.
Data set [3] deals with Rattus norvegicus. In words: Ex vivo receptor occupancy of CRF1 receptor in Sprague-Dawley rat brain at 10 mg/kg, po after 20 mins by autoradiography relative to [125I-tyrosine]sauvagine. The class given is functional.
The nature of data set [4]: AUC in Sprague-Dawley rat at 10 mg/kg, po dosed as aqueous suspension of 1% polysorbate 80 in 0.5% methylcellulose within 0.25 to 24 hrs. The class given is ADME, organism-based. Also noted: time 0.25-24 hr, dose 10 mg/kg, route oral. As to conditions: in vivo.
The nature of data set [5]: Aqueous solubility at pH 1. The class given is physicochemical.
A short description of data set [6]: Intrinsic clearance in human liver microsomes at 1 uM. The data set is classed as ADME, Microsome. (Liver microsomes are vesicles of endoplasmic reticulum, rich in cytochrome P450 enzymes.)
For data set [7], the system named is Rattus norvegicus. Description: Cmax in Sprague-Dawley rat at 10 mg/kg, po dosed as aqueous solution of oleoyl macrogolglyceride/DMAC/polysorbate 80, 85:10:5 within 0.25 to 24 hrs. Also noted: dose 10 mg/kg, route oral. As to conditions: in vivo. The data set is classed as ADME, organism-based.
Data set [8] concerns Rattus norvegicus. Description: Total plasma concentration in Sprague-Dawley rat at 10 mg/kg, po. The class given is ADME, organism-based. On the set-up: dose 10 mg/kg, route oral. As to conditions: in vivo.
In data set [9] the test system is Rattus norvegicus. Description: Oral bioavailability in Sprague-Dawley rat at 10 mg/kg dosed as aqueous solution of oleoyl macrogolglyceride/DMAC/polysorbate 80, 85:10:5 within 0.25 to 24 hrs. The data set is classed as ADME, organism-based. To be noted: in vivo.
The nature of data set [10]: Oral bioavailability in Sprague-Dawley rat at 10 mg/kg dosed as aqueous suspension of 1% polysorbate 80 in 0.5% methylcellulose within 0.25 to 24 hrs. The data set is classed as ADME, organism-based. To be noted: in vivo.
Data set [11] is described as follows: Half life in Sprague-Dawley rat 2 mg/kg, iv within 0.17 to 24 hrs. The class given is ADME, organism-based. As to conditions: in vivo. On the set-up: dose 2 mg/kg, route intravenous.
For data set [12], the system named is Rattus norvegicus. Description: Plasma free concentration in Sprague-Dawley rat at 1 mg/kg, po. The class given is ADME, organism-based. On the set-up: dose 1 mg/kg, route oral. As to conditions: in vivo.
Data set [13] concerns Rattus norvegicus. Description: Plasma free concentration in Sprague-Dawley rat at 3 mg/kg, po. The class given is ADME, organism-based. On the set-up: dose 3 mg/kg, route oral. As to conditions: in vivo.
Data set [14] has as its system Rattus norvegicus. In words: Total plasma concentration in Sprague-Dawley rat at 3 mg/kg, po. To be noted: in vivo. On the set-up: dose 3 mg/kg, route oral. The data set is classed as ADME, organism-based.
The subject of data set [15] is Rattus norvegicus. Description: Anxiolytic activity in Sprague-Dawley rat at 1 mg/kg, po assessed as decrease in exit latency after 60 mins by defensive withdrawal test relative to control. Also noted: scale not given: the % may be the effect or the level left. The class given is functional.
A short description of data set [16]: Aqueous solubility at pH 6.5. The data set is classed as physicochemical.
In data set [17] the test system is Rattus norvegicus. Description: Ex vivo receptor occupancy of CRF1 receptor in po dosed Sprague-Dawley rat brain after 20 mins by autoradiography. The class given is functional, organism-based.
Data set [18] deals with Rattus norvegicus. In words: Anxiolytic activity in Sprague-Dawley rat at 10 mg/kg, po assessed as decrease in exit latency after 60 mins by defensive withdrawal test relative to control. On the set-up: scale not given: the % may be the effect or the level left. The data set is classed as functional.
The nature of data set [19]: Cmax in Sprague-Dawley rat at 10 mg/kg, po dosed as aqueous suspension of 1% polysorbate 80 in 0.5% methylcellulose within 0.25 to 24 hrs. The class given is ADME, organism-based. On the set-up: dose 10 mg/kg, route oral. To be noted: in vivo.
The nature of data set [20]: Fraction unbound in Sprague-Dawley rat plasma at 10 mg/kg, po after 3 hrs by equilibrium dialysis. The class given is ADME, organism-based. On the set-up: dose 10 mg/kg, route oral. In general terms: Equilibrium dialysis compares concentrations on both sides of a semipermeable membrane.
For data set [21], the system named is Rattus norvegicus. Description: Total plasma concentration in Sprague-Dawley rat at 1 mg/kg, po. The class given is ADME, organism-based. On the set-up: dose 1 mg/kg, route oral. To be noted: in vivo.
Data set [22] has as its target T1, Corticotropin-releasing factor receptor 1 (Homo sapiens, UniProt P34998).
T1 sequence (P34998 whole entry): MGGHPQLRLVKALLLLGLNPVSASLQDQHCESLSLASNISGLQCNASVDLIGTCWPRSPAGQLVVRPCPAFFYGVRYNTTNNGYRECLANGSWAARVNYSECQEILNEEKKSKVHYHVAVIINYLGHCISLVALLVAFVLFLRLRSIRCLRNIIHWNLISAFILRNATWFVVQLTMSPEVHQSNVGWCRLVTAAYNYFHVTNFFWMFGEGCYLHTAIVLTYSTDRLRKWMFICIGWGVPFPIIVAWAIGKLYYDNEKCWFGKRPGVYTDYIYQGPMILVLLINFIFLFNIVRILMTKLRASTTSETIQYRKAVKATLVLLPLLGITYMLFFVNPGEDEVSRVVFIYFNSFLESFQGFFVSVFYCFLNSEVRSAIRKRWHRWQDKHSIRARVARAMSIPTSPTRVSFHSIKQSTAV
Description: Antagonist activity at CRF1 receptor in human Y-79 cells assessed as inhibition of CRF-induced cAMP production after 30 mins by HTRF analysis. On the technique in general: Changes in cAMP serve as a functional read-out for many G protein-coupled receptors.

Data set [23] relates to Rattus norvegicus. In words: Ex vivo receptor occupancy of CRF1 receptor in Sprague-Dawley rat brain at 1 mg/kg, po after 20 mins by autoradiography relative to [125I-tyrosine]sauvagine. The data set is classed as functional.
Data set [24] relates to Rattus norvegicus. Description: Plasma free concentration in Sprague-Dawley rat at 10 mg/kg, po. To be noted: in vivo. On the set-up: dose 10 mg/kg, route oral. The class given is ADME, organism-based.
Data set [25] in a line: Volume of distribution at steady state in Sprague-Dawley rat 2 mg/kg, iv within 0.17 to 24 hrs. The class given is ADME, organism-based. On the set-up: dose 2 mg/kg, route intravenous. To be noted: in vivo, read-out: Vdss.
For data set [26], the system named is Rattus norvegicus. In words: Anxiolytic activity in Sprague-Dawley rat at 3 mg/kg, po assessed as decrease in exit latency after 60 mins by defensive withdrawal test relative to control. The data set is classed as functional. On the set-up: scale not given: the % may be the effect or the level left.
A short description of data set [27]: Clearance in Sprague-Dawley rat 2 mg/kg, iv within 0.17 to 24 hrs. The class given is ADME, organism-based. On the set-up: dose 2 mg/kg, route intravenous. As to conditions: in vivo.
In data set [28] the target is T2, Corticotropin-releasing factor receptor 1 (Rattus norvegicus, UniProt P35353).
T2 sequence (P35353 whole entry): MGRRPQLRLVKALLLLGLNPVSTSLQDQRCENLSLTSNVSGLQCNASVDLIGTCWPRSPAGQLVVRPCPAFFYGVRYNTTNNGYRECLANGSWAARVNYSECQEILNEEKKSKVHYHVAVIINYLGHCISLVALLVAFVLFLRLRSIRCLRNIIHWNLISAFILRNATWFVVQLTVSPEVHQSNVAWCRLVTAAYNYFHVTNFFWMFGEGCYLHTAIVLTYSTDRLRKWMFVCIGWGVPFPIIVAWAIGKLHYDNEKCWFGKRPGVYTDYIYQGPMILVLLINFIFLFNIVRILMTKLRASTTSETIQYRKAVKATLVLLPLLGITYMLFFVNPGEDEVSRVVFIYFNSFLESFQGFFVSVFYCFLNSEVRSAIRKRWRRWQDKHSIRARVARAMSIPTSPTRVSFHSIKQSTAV
In words: Displacement of [125I]ovine-CRF from CRF1 receptor in rat frontal cortex by rapid filtration technique. The class given is tissue-based.

For data set [29], the system named is Rattus norvegicus. In words: Ex vivo receptor occupancy of CRF1 receptor in Sprague-Dawley rat brain at 3 mg/kg, po after 20 mins by autoradiography relative to [125I-tyrosine]sauvagine. The data set is classed as functional.

One may read the IC50 as the point on the concentration scale where inhibition reaches its midpoint. Broadly, the AUC is concentration integrated over time. As usually defined, the solubility is how much of the substance goes into solution per volume. For orientation: CLint scaled means the rate of metabolic loss divided by the concentration. One may read the Cmax as the maximum level reached in the sampled fluid or tissue. By bioavailability is commonly meant the share of a dose that reaches the circulation, judged against a reference dose that is usually intravenous. As a reminder, the half-life is the time in which the quantity being followed falls by half. As usually defined, the fraction unbound is free concentration divided by total concentration. What is called clearance is the volume of plasma or blood freed of the substance per unit of time.

Corticotropin releasing hormone receptor 2, sequence (B8Q4Z9 whole entry): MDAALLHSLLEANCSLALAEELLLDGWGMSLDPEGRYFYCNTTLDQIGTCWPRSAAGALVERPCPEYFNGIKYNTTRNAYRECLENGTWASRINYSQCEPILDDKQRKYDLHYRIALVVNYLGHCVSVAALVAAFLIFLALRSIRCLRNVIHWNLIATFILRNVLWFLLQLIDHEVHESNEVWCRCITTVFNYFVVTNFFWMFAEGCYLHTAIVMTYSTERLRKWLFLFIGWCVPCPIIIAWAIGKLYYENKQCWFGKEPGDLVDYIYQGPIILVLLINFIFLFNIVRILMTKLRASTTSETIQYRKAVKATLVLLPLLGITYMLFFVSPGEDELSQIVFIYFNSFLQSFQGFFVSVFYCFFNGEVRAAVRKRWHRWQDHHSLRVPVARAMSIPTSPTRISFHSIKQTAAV

With `CC[C@H](C)[C@H](NC(=O)[C@@H](NC(=O)[C@H](CC(=O)O)NC(=O)[C@H](CC(C)C)NC(=O)[C@H](CC(C)C)NC(=O)[C@H](CC(C)C)NC(=O)[C@H](CCCNC(=N)N)NC(=O)[C@H](CC(N)=O)NC(=O)[C@H](CC(N)=O)NC(=O)[C@H](C)NC(=O)[C@H](C)NC(=O)[C@H](CCC(N)=O)NC(=O)[C@H](CCC(N)=O)NC(=O)[C@H](CCCCN)NC(=O)[C@H](CCC(=O)O)NC(=O)[C@H](CCCCN)NC(=O)[C@H](CCC(=O)O)NC(=O)[C@H](CCC(N)=O)NC(=O)[C@H](CCCCN)NC(=O)[C@H](CCC(=O)O)NC(=O)[C@@H](NC(=O)[C@H](CCC(=O)O)NC(=O)[C@@H](NC(=O)[C@H](CCSC)NC(=O)[C@H](CCCCN)NC(=O)[C@H](CCCNC(=N)N)NC(=O)[C@H](CC(C)C)NC(=O)[C@H](CC(C)C)NC(=O)[C@H](CCC(=O)O)NC(=O)[C@H](CC(C)C)NC(=O)[C@H](CO)NC(=O)[C@H](CC(C)C)NC(=O)[C@H](CC(=O)O)NC(=O)[C@@H](NC(=O)[C@H](CO)NC(=O)[C@@H](NC(=O)[C@@H]1CCCN1C(=O)[C@@H]1CCCN1C(=O)CNC(=O)[C@@H]1CCC(=O)N1)[C@@H](C)CC)[C@@H](C)CC)[C@@H](C)CC)[C@@H](C)CC)[C@@H](C)O)C(N)=O` [SAUVAGINE], the IC50 in [1] amounted to 0.58 nM.
On to `C[C@@H](C1CC1)n1cc(Cl)nc(Nc2c(Cl)cc(OC(F)F)cc2Cl)c1=O`, for which the AUC stood at 12 µM·h in data set [2] and 1.3 µM·h in data set [4]. Besides, the Activity with Rattus norvegicus [3] is 83%; with Rattus norvegicus [15], 8%; in the data set on Rattus norvegicus [17], “Dose-dependent effect”; in the data set on Rattus norvegicus [18], 61%; with Rattus norvegicus [23], 43%; with Rattus norvegicus [26] it was 46%. Besides, the Activity with Rattus norvegicus [29] was determined as 73%. Moreover, the solubility in data set [5] and in [16] was less than 1 µg/mL throughout. The CLint scaled at 1 µM in [6] worked out at 62 mL/min/kg. For the same compound, the Cmax in the data set on Rattus norvegicus [7] amounted to 1700 nM; in data set [19], 100 nM. The concentration with Rattus norvegicus [8] came to 790 nM; in the data set on Rattus norvegicus [14], 270 nM; in the data set on Rattus norvegicus [21] it was 80 nM. For the same compound, in the data set with Rattus norvegicus [9], the F was 52%. Moreover, the bioavailability in data set [10] came out at 5%. For the same compound, in [11], the half-life is 7.8 h. Further, the “Cp(f)” value came out at 0.62 nM in the data set on Rattus norvegicus [12], 2.1 nM in the data set on Rattus norvegicus [13] and 6.1 nM in the data set on Rattus norvegicus [24]. In addition, in data set [20], the fraction unbound at 3 h came out at 0.0077. In addition, the IC50 in data set [22] is 4.9 nM; in data set [1], greater than 10000 nM; in data set [28] it was 1 nM. Moreover, the Vd in [25] came to 4.7 L/kg. The compound also gave a clearance in [27] of 17 mL/min/kg.
